The values below come from patent US11066416B2, “Rapafucin derivative compounds and methods of use thereof” (The Johns Hopkins University, priority 2016, dated 2021).

The subject of the first experiment is nucleoside uptake (3H-Thymidine). Kind of experiment: Nucleoside uptake assay (uptake) using 3H-Thymidine, IC50, cell line as indicated in each table (none given in Table 8). In kind it is cell-based. The conditions noted are these: 3H-Thymidine uptake; cell line not given. On the procedure: (§1) Nucleoside Uptake Assay (uptake). Nuceloside uptake assays were performed with using 3H-Thymidine as described in Guo et al. (2018) Nat. Chem. 11:254-63. Specific cell lines are indicated in each assay and cultured in complete growth media. Activity is scored according to the IC50 values relative to DMSO control. “Low” indicates an IC50 greater than 600 nM, “Medium” indicates an IC50 between 300 nM and 600 nM “High” indicates an IC50 less than 300 nM. “Rel.Uptake” refers to uptake activity characterization relative to a single concentration assay. “Low” indicates a response greater than 0.6 times the activity relative to DMSO, “Medium” indicates a response between 0.6 and 0.3 times the activity relative to DMSO, “High” indicates a response less than 0.3 times the activity relative to DMSO.
With `COc1ccc(CC[C@H]2OC(=O)[C@@H]3CCCCN3C(=O)C(=O)C(C)(C)COC(=O)/C=C/CCN(C)C(=O)[C@H](C(C)C)N(C)C(=O)[C@@H]3CCCN3C(=O)[C@@H](Cc3ccccc3)N(C)C(=O)CNC(=O)CCC(=O)Nc3cccc2c3)cc1OC` [Compound 1605], it took 27.9 nM to reach half-maximal inhibition (IC50). In other words, the double-digit nanomolar range.
The same measure, in the same setting: then `COc1ccc(CC[C@H]2OC(=O)[C@@H]3CCCCN3C(=O)C(=O)C(C)(C)COC(=O)/C=C/CCN(C)C(=O)[C@H](C(C)C)N(C)C(=O)[C@@H]3CCCN3C(=O)[C@@H](Cc3ccccc3)N(C)C(=O)[C@H](C)NC(=O)CCC(=O)Nc3cccc2c3)cc1OC` [Compound 1606], with 23.7 nM; and `CCC[C@@H]1NC(=O)CCC(=O)Nc2cccc(c2)[C@@H](CCc2ccc(OC)c(OC)c2)OC(=O)[C@@H]2CCCCN2C(=O)C(=O)C(C)(C)COC(=O)/C=C/CCN(C)C(=O)[C@H](C(C)C)N(C)C(=O)[C@@H]2CCCN2C(=O)[C@@H](Cc2ccccc2)N(C)C1=O` [Compound 1607], with 18 nM.
For `COc1ccc(CC[C@H]2OC(=O)[C@@H]3CCCCN3C(=O)C(=O)C(C)(C)COC(=O)/C=C/CCN(C)C(=O)[C@H](C(C)C)N(C)C(=O)[C@@H]3CCCN3C(=O)[C@@H](Cc3ccccc3)N(C)C(=O)[C@H](CC(C)C)NC(=O)CCC(=O)Nc3cccc2c3)cc1OC` [Compound 1608], the IC50 worked out at 54.1 nM. This IC50 lies about 3-fold higher than the previous one.
On the same count and under the same terms, then `COc1ccc(CC[C@H]2OC(=O)[C@@H]3CCCCN3C(=O)C(=O)C(C)(C)COC(=O)/C=C/CCN(C)C(=O)[C@H](C(C)C)N(C)C(=O)[C@@H]3CCCN3C(=O)[C@@H](Cc3ccccc3)N(C)C(=O)[C@H](Cc3ccccc3)NC(=O)CCC(=O)Nc3cccc2c3)cc1OC` [Compound 1609], with 55 nM; and `COc1ccc(CC[C@H]2OC(=O)[C@@H]3CCCCN3C(=O)C(=O)C(C)(C)COC(=O)/C=C/CCN(C)C(=O)[C@H](C(C)C)N(C)C(=O)[C@@H]3CCCN3C(=O)[C@@H](Cc3ccccc3)N(C)C(=O)[C@H](c3ccccc3)NC(=O)CCC(=O)Nc3cccc2c3)cc1OC` [Compound 1610], with 16.5 nM.
The same measure, in the same setting: the result for `COc1ccc(CC[C@H]2OC(=O)[C@@H]3CCCCN3C(=O)C(=O)C(C)(C)COC(=O)/C=C/CCN(C)C(=O)[C@H](C(C)C)N(C)C(=O)[C@@H]3CCCN3C(=O)[C@@H](Cc3ccccc3)N(C)C(=O)CNC(=O)COc3cccc2c3)cc1OC` [Compound 1611] reads 48.9 nM; that for `COc1ccc(CC[C@H]2OC(=O)[C@@H]3CCCCN3C(=O)C(=O)C(C)(C)COC(=O)/C=C/CCN(C)C(=O)[C@H](C(C)C)N(C)C(=O)[C@@H]3CCCN3C(=O)[C@@H](Cc3ccccc3)N(C)C(=O)[C@H](C)NC(=O)COc3cccc2c3)cc1OC` [Compound 1612], 33.5 nM.
Still for that read-out and setting: the result for `COCC[C@@H]1NC(=O)COc2cccc(c2)[C@@H](CCc2ccc(OC)c(OC)c2)OC(=O)[C@@H]2CCCCN2C(=O)C(=O)C(C)(C)COC(=O)/C=C/CCN(C)C(=O)[C@H](C(C)C)N(C)C(=O)[C@@H]2CCCN2C(=O)[C@@H](Cc2ccccc2)N(C)C1=O` [Compound 1613] reads 59.5 nM.
Molecule `CC[C@H](C)[C@H]1C(=O)N(C)CC/C=C/C(=O)OCC(C)(C)C(=O)C(=O)N2CCCC[C@H]2C(=O)O[C@H](CCc2ccc(OC)c(OC)c2)c2cccc(c2)NC(=O)CCC(=O)N[C@@H](C)C(=O)N(C)[C@H](Cc2ccccc2)C(=O)N2CCC[C@H]2C(=O)N1C` [Compound 1614] yielded an IC50 of 34.4 nM. This IC50 lies about 1.7-fold lower than the previous one.
`CCC[C@@H]1NC(=O)CCC(=O)Nc2cccc(c2)[C@@H](CCc2ccc(OC)c(OC)c2)OC(=O)[C@@H]2CCCCN2C(=O)C(=O)C(C)(C)COC(=O)/C=C/CCN(C)C(=O)[C@H]([C@@H](C)CC)N(C)C(=O)[C@@H]2CCCN2C(=O)[C@@H](Cc2ccccc2)N(C)C1=O` [Compound 1615]: the IC50 turned out to be 12.2 nM.
The same measure, in the same setting: then `CC[C@H](C)[C@H]1C(=O)N(C)CC/C=C/C(=O)OCC(C)(C)C(=O)C(=O)N2CCCC[C@H]2C(=O)O[C@H](CCc2ccc(OC)c(OC)c2)c2cccc(c2)NC(=O)CCC(=O)N[C@@H](c2ccccc2)C(=O)N(C)[C@H](Cc2ccccc2)C(=O)N2CCC[C@H]2C(=O)N1C` [Compound 1616], with 100 nM.
The same measure, in the same setting: the result for `CC[C@H](C)[C@H]1C(=O)N(C)CC/C=C/C(=O)OCC(C)(C)C(=O)C(=O)N2CCCC[C@H]2C(=O)O[C@H](CCc2ccc(OC)c(OC)c2)c2cccc(c2)OCC(=O)N[C@@H](C)C(=O)N(C)[C@H](Cc2ccccc2)C(=O)N2CCC[C@H]2C(=O)N1C` [Compound 1617] reads 34.1 nM; that for `CCC[C@@H]1NC(=O)COc2cccc(c2)[C@@H](CCc2ccc(OC)c(OC)c2)OC(=O)[C@@H]2CCCCN2C(=O)C(=O)C(C)(C)COC(=O)/C=C/CCN(C)C(=O)[C@H]([C@@H](C)CC)N(C)C(=O)[C@@H]2CCCN2C(=O)[C@@H](Cc2ccccc2)N(C)C1=O` [Compound 1618], 173 nM.
Same read-out and setting: then `COc1ccc(CC[C@H]2OC(=O)[C@@H]3CCCCN3C(=O)C(=O)C(C)(C)COC(=O)/C=C/CCN(C)C(=O)[C@H](C)N(C)C(=O)[C@@H]3CCCN3C(=O)[C@@H](Cc3ccccc3)N(C)C(=O)[C@H](C)NC(=O)COc3cccc2c3)cc1OC` [Compound 1619], with 66.7 nM; and `CCCC[C@H]1C(=O)N(C)CC/C=C/C(=O)OCC(C)(C)C(=O)C(=O)N2CCCC[C@H]2C(=O)O[C@H](CCc2ccc(OC)c(OC)c2)c2cccc(c2)OCC(=O)NCC(=O)N(C)[C@H](Cc2ccccc2)C(=O)N2CCC[C@H]2C(=O)N1C` [Compound 1620], with 13.9 nM.
The molecule `CCCC[C@H]1C(=O)N(C)CCC=CC(=O)OCC(C)(C)C(=O)C(=O)N2CCCC[C@H]2C(=O)O[C@H](CCc2ccc(OC)c(OC)c2)c2cccc(c2)OCC(=O)N[C@@H](C)C(=O)N(C)[C@H](Cc2ccccc2)C(=O)N2CCC[C@H]2C(=O)N1C` [Compound 1621] displayed an IC50 of 9.76 nM.
Molecule `COc1ccc(CC[C@H]2OC(=O)[C@@H]3CCCCN3C(=O)C(=O)C(C)(C)COC(=O)C=CCCN(C)C(=O)[C@H](CC(C)C)N(C)C(=O)[C@@H]3CCCN3C(=O)[C@@H](Cc3ccccc3)N(C)C(=O)CNC(=O)COc3cccc2c3)cc1OC` [Compound 1622] yielded an IC50 of 28.5 nM. Against the preceding molecule, the IC50 is about 2.9-fold higher.
`COc1ccc(CC[C@H]2OC(=O)[C@@H]3CCCCN3C(=O)C(=O)C(C)(C)COC(=O)C=CCCN(C)C(=O)[C@H](CC(C)C)N(C)C(=O)[C@@H]3CCCN3C(=O)[C@@H](Cc3ccccc3)N(C)C(=O)[C@H](C)NC(=O)COc3cccc2c3)cc1OC` [Compound 1623] showed an IC50 of 10.5 nM.
On to `COc1ccc(CC[C@H]2OC(=O)[C@@H]3CCCCN3C(=O)C(=O)C(C)(C)COC(=O)C=CCCN(C)C(=O)[C@H](CC(C)C)N(C)C(=O)[C@@H]3CCCN3C(=O)[C@@H](Cc3ccccc3)N(C)C(=O)[C@H](C)NC(=O)CCC(=O)Nc3cccc2c3)cc1OC` [Compound 1624], for which the IC50 amounted to 31.4 nM.
Same read-out and setting: then `CCC[C@H]1C(=O)N(C)CCC=CC(=O)OCC(C)(C)C(=O)C(=O)N2CCCC[C@H]2C(=O)O[C@H](CCc2ccc(OC)c(OC)c2)c2cccc(c2)OCC(=O)NCC(=O)N(C)[C@H](Cc2ccccc2)C(=O)N2CCC[C@H]2C(=O)N1C` [Compound 1625], with 42.3 nM.
`COc1ccc(CC[C@H]2OC(=O)[C@@H]3CCCCN3C(=O)C(=O)C(C)(C)COC(=O)C=CCCN(C)C(=O)[C@@H](C)N(C)C(=O)[C@@H]3CCCN3C(=O)[C@@H](Cc3ccccc3)N(C)C(=O)CNC(=O)COc3cccc2c3)cc1OC` [Compound 1626] displayed an IC50 of 155 nM. Compared with the last molecule, the IC50 is about 3.7-fold higher.
Same read-out and setting: then `COc1ccc(CC[C@H]2OC(=O)[C@@H]3CCCCN3C(=O)C(=O)C(C)(C)COC(=O)C=CCCN(C)C(=O)C3(CCCCC3)NC(=O)[C@@H]3CCCN3C(=O)[C@@H](Cc3ccccc3)N(C)C(=O)CNC(=O)COc3cccc2c3)cc1OC` [Compound 1627], with 262 nM.

For a further experiment, the system named is H929. In words: Cell proliferation assay (Prolif.), H929. In kind it is cell-based. The conditions noted are these: H929 cells; Table 11. The procedure:
Cell Proliferation Assay (Prolif.) Guo et al. (2018) Nat. Chem. 11:254-63. Specific cell lines are indicated in each assay and cultured in complete growth media. Activity is scored according to the IC50 values relative to DMSO control. “Low” indicates an IC50 greater than 600 nM, “Medium” indicates an IC50 between 300 nM and 600 nM “High” indicates an IC50 less than 300 nM. “Rel.Uptake” refers to uptake activity characterization relative to a single concentration assay. “Low” indicates a response greater than 0.6 times the activity relative to DMSO, “Medium” indicates a response between 0.6 and 0.3 times the activity relative to DMSO, “High” indicates a response less than 0.3 times the activity relative to DMSO.
For the molecule `COc1ccc(CC[C@H]2OC(=O)[C@@H]3CCCCN3C(=O)C(=O)C(C)(C)COC(=O)C=CCCN(C)C(=O)[C@@H](Cc3ccccc3)NC(=O)CN(C)C(=O)[C@@H](Cc3ccccc3)NC(=O)[C@H](Cc3ccc(O)cc3)N(C)C(=O)COc3cccc2c3)c(O)c1OC` [Compound 1584], the “Prolif, H929” value is listed as “low”.

Another experiment has as its system nucleoside uptake (3H-Thymidine). Kind of experiment: Rel.Uptake: nucleoside uptake, single concentration assay, cell line as indicated in each table. In kind it is cell-based. The following applies: 293T, nucleoside uptake, response relative to DMSO. The procedure: as §1
For `COc1ccc(CC[C@H]2OC(=O)[C@@H]3CCCCN3C(=O)C(=O)C(C)(C)COC(=O)C=CCCN(C)C(=O)[C@@H](Cc3ccccc3)NC(=O)CN(C)C(=O)[C@@H](Cc3ccccc3)NC(=O)[C@H](Cc3ccc(O)cc3)N(C)C(=O)COc3cccc2c3)c(O)c1OC` [Compound 1584], the “Rel. Uptake, 293T” value is recorded as “low”.

Staying with this experiment, now noted: 293T, response relative to DMSO.
Regarding `COc1ccc(CC[C@H]2OC(=O)[C@@H]3CCCCN3C(=O)C(=O)C(C)(C)COC(=O)C=CCCN(C)C(=O)[C@H](CC(C)C)N(C)C(=O)[C@H]3CCCN3C(=O)[C@H](CC(=O)OC(C)(C)C)N(C)C(=O)C(c3ccccc3)NC(=O)CCC(=O)Nc3cccc2c3)cc1OC` (some centres unmarked) [Compound 1066], the “Rel. Uptake, 293T” value is listed as “high”.
The same measure, in the same setting: then `COc1ccc(CC[C@H]2OC(=O)[C@@H]3CCCCN3C(=O)C(=O)C(C)(C)COC(=O)C=CCCN(C)C(=O)[C@H](CC(C)C)N(C)C(=O)[C@H]3CCCN3C(=O)[C@H](Cc3ccc(CC(=O)OC(C)(C)C)cc3)NC(=O)C(c3ccccc3)NC(=O)CCC(=O)Nc3cccc2c3)cc1OC` (some centres unmarked) [Compound 1081], with “medium”.

Another experiment concerns 293T. In words: Nucleoside uptake assay (uptake) using 3H-Thymidine, 293T. In kind it is cell-based. The following applies: 293T cells, IC50 class relative to DMSO control. The procedure: as §1
For `COc1ccc(CC[C@H]2OC(=O)[C@@H]3CCCCN3C(=O)C(=O)C(C)(C)COC(=O)C=CCCN(C)C(=O)[C@H](CC(C)C)N(C)C(=O)[C@H]3CCCN3C(=O)[C@H](CC(=O)OC(C)(C)C)N(C)C(=O)C(c3ccccc3)NC(=O)CCC(=O)Nc3cccc2c3)cc1OC` (some centres unmarked) [Compound 1066], the “Uptake, 293T” value was “high”.
The same measure, in the same setting: then `COc1ccc(CC[C@H]2OC(=O)[C@@H]3CCCCN3C(=O)C(=O)C(C)(C)COC(=O)C=CCCN(C)C(=O)[C@H](CC(C)C)N(C)C(=O)[C@H]3CCCN3C(=O)[C@H](Cc3ccc(CC(=O)OC(C)(C)C)cc3)NC(=O)C(c3ccccc3)NC(=O)CCC(=O)Nc3cccc2c3)cc1OC` (some centres unmarked) [Compound 1081], with “medium”.

The IC50 is the concentration needed to halve the response being measured. Read a high IC50 as lower potency.
